Source: patent US20250066335A1, “POLYSUBSTITUTED 4-HYDROXYPYRIDINE AND 4-HYDROXYQUINOLINE DERIVATIVES AS GPR84 ANTAGONISTS” (UNIVERSITY OF COPENHAGEN, priority 2021, published 2025)

Each compound was assayed against T1, GPR84 (Homo sapiens, UniProt Q9NQS5) (assay: PRESTO-Tango β-arrestin2 recruitment assay, GPR84 antagonistic activity). Conditions: antagonist activity in the Presto-TANGO assay; inhibition of the response from the agonist ZQ-16 (100 nM); HTLA cells.
T1 construct: expressed in transfected cells; host or cells: HTLA cells (HEK293 line stably expressing a tTA-dependent luciferase reporter and a β-arrestin2-TEV fusion gene), transiently transfected with PEI
T1 sequence (Q9NQS5 whole entry, the tested form may be a part): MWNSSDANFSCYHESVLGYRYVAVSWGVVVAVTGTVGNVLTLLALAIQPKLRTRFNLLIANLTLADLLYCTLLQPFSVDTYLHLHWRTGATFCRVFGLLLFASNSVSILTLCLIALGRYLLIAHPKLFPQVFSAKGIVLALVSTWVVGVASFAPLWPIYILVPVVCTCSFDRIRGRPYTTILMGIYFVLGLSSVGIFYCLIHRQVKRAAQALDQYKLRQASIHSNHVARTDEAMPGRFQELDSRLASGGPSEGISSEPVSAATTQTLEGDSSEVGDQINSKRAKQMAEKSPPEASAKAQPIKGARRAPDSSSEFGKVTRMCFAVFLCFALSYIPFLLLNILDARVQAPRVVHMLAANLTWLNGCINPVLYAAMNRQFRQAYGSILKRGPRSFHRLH
Assay type: cell-based
Experimental: PRESTO-Tango β-arrestin recruitment assay (W.K. Kroeze et al., 2015). HTLA cells (a HEK293 cell line stably expressing a tTA-dependent luciferase reporter and a β-arrestin2-TEV fusion gene) were maintained in Dulbecco's Modified Eagle's Medium (DMEM) supplemented with 10% Fetal Bovine Serum (dFBS), 100 U/mL penicillin and 100 μg/mL streptomycin, 2 μg/mL puromycin and 100 μg/mL hygromycin B in a humidified atmosphere at 37° C. in 5% CO2. For transfection, cells were plated at 9×10^6 to 10×10^6 cells per 15-cm cell-culture dish (day 1). The following day (day 2), cells were transfected by adding 5 μg DNA and 15 μg polyethylenimine (PEI) diluted in 1 mL Opti-MEM (Reduced Serum Medium supplied by ThermoFisher). On day 3, transfected cells were transferred at 25000 cells per well in 40 μl of medium into poly-l-lysine-coated and rinsed 384-well white, clear-bottomed cell-culture plates (Greiner Bio-One). On day 4, dilutions of the ligands to be tested were prepared in 1% dFBS DMEM and 10 μL were added to each well. On day 5, 20 μl per well of Bright-Glo solution (Promega) diluted 10-fold in assay buffer (Hanks' Balanced Salt Solution [HBSS], 20 mM HEPES, 1 mM CaCl2, 1 mM MgCl2, pH adjusted to 7.4 by 5 M NaOH) was added to each well. After incubation for 20 min at room temperature, luminescence was counted in an Enspire luminescence counter at 384 nm. Results in the form of relative luminescence units (RLU) were exported into Excel spreadsheets, and GraphPad Prism was used for analysis of data. To measure constitutive activity, no ligand was added on day 4.
The GPR84 antagonistic activity of the compounds was determined using the PRESTO-Tango β-arrestin2 recruitment assay (Assay I, see assays above), from which the concentration of each compound required for 50% inhibition (IC50) of the response from the agonist ZQ-16 (100 nM) was determined. The antagonistic activity for each compound is given in Table 1 as the pIC50, which is the negative log of the IC50 value when converted to molar.

IC50 [nM]	SMILES
85.1	CCCc1ccc(CCc2nc(OCC3CCCCO3)cc(O)c2-c2ccccc2)cc1 (stereo not drawn) [Example 3, 3-Phenyl-2-(4-propylphenethyl)-6-((tetrahydro-2H-pyran-2-yl)methoxy)pyridin-4-ol]
0.55	CCc1c(O)cc(OC[C@@H]2COCCO2)nc1CCc1ccc(OC)cc1C#N [Example 55, (S)-2-(2-(6-((1,4-dioxan-2-yl)methoxy)-3-ethyl-4-hydroxypyridin-2-yl)ethyl)-5-methoxybenzonitrile]
66.1	CCCc1ccc(CCc2nc(OCC3CCCCO3)cc(O)c2-c2ccc(C)cc2)cc1 (stereo not drawn) [Example 10, 2-(4-Propylphenethyl)-6-((tetrahydro-2H-pyran-2-yl)methoxy)-3-(p-tolyl)pyridin-4-ol]
0.355	CCc1c(O)cc(OC[C@@H]2COCCO2)nc1CCc1ccc(OC)cc1OC [Example 53, (S)-6-((1,4-dioxan-2-yl)methoxy)-2-(2,4-dimethoxyphenethyl)-3-ethylpyridin-4-ol]
389	CCCc1ccc(CCc2nc(OCC3CCCCO3)cc(O)c2-c2ccccc2C)cc1 (stereo not drawn) [Example 9, 2-(4-Propylphenethyl)-6-((tetrahydro-2H-pyran-2-yl)methoxy)-3-(o-tolyl)pyridin-4-ol]
6.61	CCCc1ccc(CCc2nc(OCC3CCCCO3)cc(O)c2CCC)cc1 (stereo not drawn) [Example 7, 3-Propyl-2-(4-propylphenethyl)-6-((tetrahydro-2H-pyran-2-yl)methoxy)pyridin-4-ol]
148	CCCc1ccc(CCc2nc(OCC3CCCCO3)cc(O)c2-c2ccc(OCC(=O)OC)cc2)cc1 (stereo not drawn) [Example 18, Methyl 2-(4-(4-hydroxy-2-(4-propylphenethyl)-6-((tetrahydro-2H-pyran-2-yl)methoxy)pyridin-3-yl)phenoxy)acetate]
23.4	CCc1c(O)cc(OC[C@@H]2COCCO2)nc1CCCCc1ccccc1 [Example 56, (S)-6-((1,4-dioxan-2-yl)methoxy)-3-ethyl-2-(4-phenylbutyl)pyridin-4-ol]
1.55	CCc1c(O)cc(OC[C@@H]2COCCO2)nc1CCc1ccc(OC)c(C#N)c1 [Example 54, (S)-5-(2-(6-((1,4-dioxan-2-yl)methoxy)-3-ethyl-4-hydroxypyridin-2-yl)ethyl)-2-methoxybenzonitrile]
0.871	CCc1c(O)cc(OCC2COCCO2)nc1CCc1ccc(OCCCS(C)(=O)=O)cc1 (stereo not drawn) [Example 39, 6-((1,4-Dioxan-2-yl)methoxy)-3-ethyl-2-(4-(3-(methylsulfonyl)propoxy)phenethyl)pyridin-4-ol]
5.37	CCc1c(O)cc(OCC2COCCO2)nc1CCc1ccc(OCc2nc(C(=O)O)co2)cc1 (stereo not drawn) [Example 48, 2-((4-(2-(6-((1,4-Dioxan-2-yl)methoxy)-3-ethyl-4-hydroxypyridin-2-yl)ethyl)phenoxy)methyl)oxazole-4-carboxylic acid]
0.257	CCOC(=O)CCCCOc1ccc(CCc2nc(OCC3COCCO3)cc(O)c2CC)cc1 (stereo not drawn) [Example 36, Ethyl 5-(4-(2-(6-((1,4-dioxan-2-yl)methoxy)-3-ethyl-4-hydroxypyridin-2-yl)ethyl)phenoxy)pentanoate]
93.3	CCCc1ccc(CCc2nc(OCC3CCCCO3)cc(O)c2-c2ccc(O)cc2)cc1 (stereo not drawn) [Example 17, 3-(4-Hydroxyphenyl)-2-(4-propylphenethyl)-6-((tetrahydro-2H-pyran-2-yl)methoxy)pyridin-4-ol]
0.741	CCc1c(O)cc(OCC2COCCO2)nc1CCc1ccc(OCCO)cc1 (stereo not drawn) [Example 35, 6-((1,4-Dioxan-2-yl)methoxy)-3-ethyl-2-(4-(2-hydroxyethoxy)phenethyl)pyridin-4-ol]
1.07	CCc1c(O)cc(OCC2COCCO2)nc1CCc1ccc(O)cc1 (stereo not drawn) [Example 43, 6-((1,4-dioxan-2-yl)methoxy)-3-ethyl-2-(4-hydroxyphenethyl)pyridin-4-ol]
3.02	CCCc1ccc(CCc2nc(OCC3CCCCO3)cc(O)c2Br)cc1 (stereo not drawn) [Example 1, 3-bromo-2-(4-propylphenethyl)-6-((tetrahydro-2H-pyran-2-yl)methoxy)pyridin-4-ol]
16.2	Cc1c(O)cc(OCC2COCCO2)nc1CCc1ccc(OCCN)cc1 (stereo not drawn) [Example 29, 2-(4-(2-(6-((1,4-Dioxan-2-yl)methoxy)-4-hydroxy-3-methylpyridin-2-yl)ethyl)phenoxy)ethan-1-aminium chloride]
1.26	CCc1c(O)cc(OC[C@@H]2COCCO2)nc1CCc1ccc(OC)c(OC)c1 [Example 52, (S)-6-((1,4-dioxan-2-yl)methoxy)-2-(3,4-dimethoxyphenethyl)-3-ethylpyridin-4-ol]
120	CCCCc1ccc(-c2nc(OC[C@@H]3COCCO3)cc(O)c2CC)cc1 [Example 57, (S)-6-((1,4-dioxan-2-yl)methoxy)-2-(4-butylphenyl)-3-ethylpyridin-4-ol]
0.2	CCc1c(O)cc(OCC2COCCO2)nc1CCc1ccc(OCCOc2ccccc2)cc1 (stereo not drawn) [Example 38, 6-((1,4-Dioxan-2-yl)methoxy)-3-ethyl-2-(4-(2-phenoxyethoxy)phenethyl)pyridin-4-ol]
1.32	CCCc1ccc(CCc2nc(OCC3CCCCO3)cc(O)c2C)cc1 (stereo not drawn) [Example 2, 3-Methyl-2-(4-propylphenethyl)-6-((tetrahydro-2H-pyran-2-yl)methoxy)pyridin-4-ol]
93.3	CCCc1ccc(CCc2nc(OCC3CCCCO3)cc(O)c2-c2ccc(OCC(=O)O)cc2)cc1 (stereo not drawn) [Example 19, 2-(4-(4-Hydroxy-2-(4-propylphenethyl)-6-((tetrahydro-2H-pyran-2-yl)methoxy)pyridin-3-yl)phenoxy)acetic acid]
3.02	CCCc1ccc(CCc2nc(OCC3COCCO3)cc(O)c2C)cc1 (stereo not drawn) [Example 22, 6-((1,4-Dioxan-2-yl)methoxy)-3-methyl-2-(4-propylphenethyl)pyridin-4-ol]
0.977	CCc1c(O)cc(OCC2COCCO2)nc1CCc1ccc(OCCN2C(=O)c3ccccc3C2=O)cc1 (stereo not drawn) [Example 42, 2-(2-(4-(2-(6-((1,4-Dioxan-2-yl)methoxy)-3-ethyl-4-hydroxypyridin-2-yl)ethyl)phenoxy)ethyl)isoindoline-1,3-dione]
